Assay results as given in patent publication US11084800B2 (Achillion Pharmaceuticals, Inc., priority 2017, dated 2021).

target: Human Factor D (Homo sapiens (Human), UniProt P00746); assay: Human Factor D Assay; format: biochemical; settings: Factor D inhibition, assay of Example 10; read-out: IC5 (Stars)
In short: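 Thioester substrate Z-L-Lys-SBz (100 μM) with Ellman's reagent DTNB (100 μM) reports activity of 80 nM human serum-derived enzyme, kinetically at 405 nm over 30 min. Compound preincubated 5 min, room temperature, pH 7.5 Tris/1 M NaCl; IC50 by nonlinear fit of rates.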

Chain of Human Factor D (P00746 26-253): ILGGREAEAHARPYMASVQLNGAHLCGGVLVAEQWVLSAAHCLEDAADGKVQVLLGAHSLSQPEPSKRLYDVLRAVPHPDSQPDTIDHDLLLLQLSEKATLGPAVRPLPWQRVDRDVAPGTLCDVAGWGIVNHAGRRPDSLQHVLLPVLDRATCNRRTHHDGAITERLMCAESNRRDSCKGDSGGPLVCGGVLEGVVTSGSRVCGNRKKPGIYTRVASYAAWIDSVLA

Q: For CC(=O)c1nn(CC(=O)N2[C@H](C(=O)Nc3nc(Br)ccc3C)C[C@@]3(Cc4nnco4)C[C@@H]23)c2c(C)cc(-c3cnc(C)nc3)cc12 [Compound 359, (1R,3S,5R)-5-((1,3,4-Oxadiazol-2-yl)methyl)-2-(2-(3-acetyl-7-methyl-5-(2-methylpyrimidin-5-yl)-1H-indazol-1-yl)acetyl)-N-(6-bromo-3-methylpyridin-2-yl)-2-azabicyclo[3.1.0]hexane-3-carboxamide], which IC50 is on record?
A: Its IC50 is less than 1000 nM.

Q: For CC(=O)c1nn(CC(=O)N2[C@H](C(=O)Nc3nc(Br)ccc3C)C[C@@]3(c4cn(C(C)C)nn4)C[C@@H]23)c2ccc(-c3cnc(C)nc3)cc12 [Compound 309, (1R,3S,5S)-2-(2-(3-acetyl-5-(2-methylpyrimidin-5-yl)-1H-indazol-1-yl)acetyl)-N-(6-bromo-3-methylpyridin-2-yl)-5-(1-isopropyl-1H-1,2,3-triazol-4-yl)-2-azabicyclo[3.1.0]hexane-3-carboxamide], which IC50 is on record?
A: Its IC50 is less than 1000 nM.

Q: CC(=O)c1nn(CC(=O)N2[C@H](C(=O)N[C@@H](C)CC(C)(C)C)C[C@@]3(C)C[C@@H]23)c2ccc(-c3cnc(C)nc3)cc12 [Compound 588, (1R,3S,5R)-2-(2-(3-acetyl-5-(2-methylpyrimidin-5-yl)-1H-indazol-1-yl)acetyl)-N-((S)-4,4-dimethylpentan-2-yl)-5-methyl-2-azabicyclo[3.1.0]hexane-3-carboxamide] was tested. Which IC50 did it give?
A: Its IC50 is 1000 to 10000 nM.

Q: With CC(=O)c1nn(CC(=O)N2[C@H](C(=O)Nc3cccc(-n4ccccc4=O)n3)C[C@@]3(C)C[C@@H]23)c2c(C)cc(-c3cnc(C)nc3)cc12 [Compound 451, (1R,3S,5R)-2-(2-(3-acetyl-7-methyl-5-(2-methylpyrimidin-5-yl)-1H-indazol-1-yl)acetyl)-5-methyl-N-(2-oxo-2H-[1,2′-bipyridin]-6′-yl)-2-azabicyclo[3.1.0]hexane-3-carboxamide] as the molecule, how does the IC50 read?
A: Its IC50 is less than 1000 nM.

Q: How did the IC50 turn out when CC(=O)c1nn(CC(=O)N2[C@H](C(=O)Nc3nc(Br)ccc3C)C[C@@]3(CNc4ccn(CC(F)(F)F)n4)C[C@@H]23)c2c(C)cc(-c3cnc(C)nc3)cc12 [Compound 441, (1R,3S,5R)-2-(2-(3-acetyl-7-methyl-5-(2-methylpyrimidin-5-yl)-1H-indazol-1-yl)acetyl)-N-(6-bromo-3-methylpyridin-2-yl)-5-(((1-(2,2,2-trifluoroethyl)-1H-pyrazol-3-yl)amino)methyl)-2-azabicyclo[3.1.0]hexane-3-carboxamide] was run?
A: The IC50 was less than 1000 nM.

same assay, conditions: Table 6; Factor D 80 nM, substrate Z-L-Lys-SBz; read-out: IC50

Q: How did the IC50 turn out when CC(=O)c1nn(CC(=O)N2[C@H](C(=O)Nc3nc(Br)ccc3C)C[C@@]3(C)C[C@@H]23)c2c(CF)cc(-c3cnc(C)nc3)cc12 [Compound 31, (1R,3S,5R)-2-(2-(3-Acetyl-7-(fluoromethyl)-5-(2-methylpyrimidin-5-yl)-1H-indazol-1-yl)acetyl)-N-(6-bromo-3-methylpyridin-2-yl)-5-methyl-2-azabicyclo[3.1.0]hexane-3-carboxamide] was run?
A: The IC50 was less than 1000 nM.

Q: For CC(=O)c1nn(CC(=O)N2[C@H]3C[C@@]3(CN3C[C@H]4CCC[C@H]4C3)C[C@H]2C(=O)Nc2nc(Br)ccc2C)c2cnc(-c3cnc(C)nc3)cc12 [Compound 206, (1S,3S,5S)-2-(2-(3-acetyl-5-(2-methylpyrimidin-5-yl)-1H-pyrazolo[3,4-c]pyridin-1-yl)acetyl)-N-(6-bromo-3-methylpyridin-2-yl)-S-(((3aR,6a5)-hexahydrocyclopenta[c]pyrrol-2(1H)-yl)methyl)-2-azabicyclo[3.1.0]hexane-3-carboxamide], which IC50 is on record?
A: Its IC50 is less than 1000 nM.

Q: With CC(=O)c1nn(CC(=O)N2[C@H](C(=O)Nc3nc(Br)ccc3C)C[C@@]3(C)C[C@@H]23)c2c(C)cc(-c3cnc(OC4COC4)nc3)cc12 [Compound 208, (1R,3S,5R)-2-(2-(3-acetyl-7-methyl-5-(2-(oxetan-3-yloxy)pyrimidin-5-yl)-1H-indazol-1-yl)acetyl)-N-(6-bromo-3-methylpyridin-2-yl)-5-methyl-2-azabicyclo[3.1.0]hexane-3-carboxamide] as the molecule, how does the IC50 read?
A: The IC50 was less than 1000 nM.
